Reference: ChEMBL document CHEMBL1151447, “Complex class 1 integrons with diverse variable regions, including aac(6')-Ib-cr, and a novel allele, qnrB10, associated with ISCR1 in clinical enterobacterial isolates from Argentina” (2007)

Experiments:
Type in all cases: functional
Escherichia coli [1] = assay: Antimicrobial activity against Escherichia coli DH10B expressing pCRQB10 in presence of IPTG; details: K-12 substr. DH10B
Escherichia coli [2] = assay: Antimicrobial activity against Escherichia coli DH10B in presence of IPTG; details: K-12 substr. DH10B
Klebsiella pneumoniae = assay: Antimicrobial activity against multidrug-resistant Klebsiella pneumoniae M7943 bearing qnrB10 gene with aac(6)-Ib-cr-blaOXA-30 catB3-arr-3 integron in presence of IPTG
Escherichia coli [3] = assay: Antimicrobial activity against Escherichia coli J53-AzR in presence of IPTG
Escherichia coli [4] = assay: Antimicrobial activity against Escherichia coli DH10B expressing pCR2.1 in presence of IPTG; details: K-12 substr. DH10B
Enterobacter cloacae = assay: Antimicrobial activity against multidrug-resistant Enterobacter cloacae E705 bearing qnrB10 gene with aac(6)-IId-aadA1a integron in presence of IPTG
Escherichia coli [5] = assay: Antimicrobial activity against multidrug-resistant Escherichia coli M7943-TC2 bearing qnrB10 gene with aac(6)-Ib-cr-blaOXA-30 catB3-arr-3 integron in presence of IPTG

SMILES	MIC (Escherichia coli [1])	MIC (Escherichia coli [2])	MIC (Klebsiella pneumoniae)	MIC (Escherichia coli [3])	MIC (Escherichia coli [4])	MIC (Enterobacter cloacae)	MIC (Escherichia coli [5])
NCC[C@H](O)C(=O)N[C@@H]1C[C@H](N)[C@@H](O[C@H]2O[C@H](CN)[C@@H](O)[C@H](O)[C@H]2O)[C@H](O)[C@H]1O[C@H]1O[C@H](CO)[C@@H](O)[C@H](N)[C@H]1O [AMIKACIN]	2 µg/mL	1 µg/mL	16 µg/mL	0.5 µg/mL	2 µg/mL	8 µg/mL	4 µg/mL
O=C(O)c1cn(C2CC2)c2cc(N3CCNCC3)c(F)cc2c1=O [CIPROFLOXACIN]	–	–	32 µg/mL	–	–	–	–
COc1c(N2CCNC(C)C2)c(F)cc2c(=O)c(C(=O)O)cn(C3CC3)c12 (stereo unspecified) [GATIFLOXACIN]	0.06 µg/mL	0.004 µg/mL	4 µg/mL	0.03 µg/mL	0.004 µg/mL	32 µg/mL	0.5 µg/mL
NC[C@H]1O[C@H](O[C@H]2[C@H](O)[C@@H](O[C@H]3O[C@H](CO)[C@@H](O)[C@H](N)[C@H]3O)[C@H](N)C[C@@H]2N)[C@H](O)[C@@H](O)[C@@H]1O [KANAMYCIN]	≥ 256 µg/mL	1 µg/mL	128 µg/mL	2 µg/mL	≥ 256 µg/mL	≥ 256 µg/mL	64 µg/mL
C[C@H]1COc2c(N3CCN(C)CC3)c(F)cc3c(=O)c(C(=O)O)cn1c23.C[C@H]1COc2c(N3CCN(C)CC3)c(F)cc3c(=O)c(C(=O)O)cn1c23.O [LEVOFLOXACIN]	–	0.004 µg/mL	4 µg/mL	–	0.004 µg/mL	≥ 64 µg/mL	–
COc1c(N2C[C@@H]3CCCN[C@@H]3C2)c(F)cc2c(=O)c(C(=O)O)cn(C3CC3)c12 [MOXIFLOXACIN]	0.125 µg/mL	0.004 µg/mL	8 µg/mL	–	0.004 µg/mL	–	1 µg/mL
CCn1cc(C(=O)O)c(=O)c2ccc(C)nc21 [NALIDIXIC ACID]	8 µg/mL	2 µg/mL	128 µg/mL	4 µg/mL	2 µg/mL	≥ 256 µg/mL	16 µg/mL
CCn1cc(C(=O)O)c(=O)c2cc(F)c(N3CCNCC3)cc21 [NORFLOXACIN]	0.125 µg/mL	0.008 µg/mL	32 µg/mL	0.03 µg/mL	0.008 µg/mL	≥ 64 µg/mL	2 µg/mL
CC1COc2c(N3CCN(C)CC3)c(F)cc3c(=O)c(C(=O)O)cn1c23 (stereo unspecified) [OFLOXACIN]	–	0.004 µg/mL	8 µg/mL	–	0.004 µg/mL	≥ 64 µg/mL	–
NC[C@H]1O[C@H](O[C@H]2[C@H](O)[C@@H](O[C@H]3O[C@H](CO)[C@@H](O)[C@H](N)[C@H]3O)[C@H](N)C[C@@H]2N)[C@H](N)C[C@@H]1O [TOBRAMYCIN]	0.25 µg/mL	0.25 µg/mL	16 µg/mL	0.25 µg/mL	0.25 µg/mL	32 µg/mL	16 µg/mL
